Assay results as given in patent US10046060B2, “Co-administration of an agent linked to an internalization peptide with an anti-inflammatory” (NoNO Inc., priority 2007, dated 2018).
Entries after “also recorded” stand apart in the source; their conditions may differ. Ends that are not written are not given here.

How the values were obtained:
[1] = system: Sprague-Dawley rats; experiment: Non-GLP blood pressure study in anesthetized rats at 50 mg/kg; type: in vivo, rat
Protocol: In one experiment, 5 male Sprague-Dawley rats received a 50 mg/kg Tat-NR2B9c bolus dose over 3 minutes. Blood pressure was monitored via a femora arterial catheter.

[2] = system: Beagle dogs; experiment: GLP cardiovascular telemetry study at 10 mg/kg (CRM Study No. 691429); type: in vivo, dog
Protocol: To obtain detailed cardiovascular information at the highest dose level tested in the 14-day dog repeated-dose toxicity study (i.e., 10 mg/kg), an additional GLP cardiovascular telemetry study in unrestrained, conscious, Beagle dogs was performed (CRM Study No. 691429). Six animals (3 males, 3 females) received vehicle in the morning and 10 mg/kg Tat-NR2B9c in the afternoon of the same day (at least 4 hours between doses). […] The female animals used in this additional cardiovascular study were obtained from the Charles River colony and were non-nave animals that had been previously used in the first cardiovascular study for Tat-NR2B9c (CRM Study No. 691106).

[3] = system: Beagle dogs; experiment: Non-GLP dose range study, single slow intravenous injection; type: in vivo, dog; conditions: for Severity of angio-neurotic oedema and urticaria: 12.5 mg/kg
Protocol: A non-GLP study was conducted to examine a dose range for Tat-NR2B9c, administered to Beagle dogs by a single, slow intravenous injection. Two animals (one male and one female Beagle dog) were dosed intravenously with Tat-NR2B9c on seven occasions. There was a 3-4 day wash-out period between the doses. The first dose was given at 2.5 mg/kg. […] There was no reaction in the female dog. […] The third dose was given at 12.5 mg/kg. […] The reaction in the male dog was assessed to be moderate, and in the female animal, the reaction was mild. The next dose was set at 20.0 mg/kg. […] The animal was treated with i.v. administration of benadryl and dexamethasone. BP at 5 minutes post-dosing was recorded as 37/13 mm Hg (nomial BP in a dog is ˜160/90). A decision was made not to dose the female animal.
The next doses were given in order to better understand the type of reactions seen in preceding doses. The fifth and sixth doses were set at 2.5 and 5.0 mg/kg.

[4] = Maximum Tolerated Dose in preclinical animal trials, rats; conditions: rat, in vivo
[5] = system: rats; experiment: Mean arterial pressure (MAP) in rats after Tat peptides with or without anti-inflammatory agents; conditions: 7.5 mg/kg bolus; FIG. 7
[6] = system: Beagle dogs; experiment: GLP 14-day intravenous toxicity study (CRM Study No. 501448): clinical signs and plasma histamine; type: in vivo, dog
Protocol: Blood samples (approximately 1 mL) were collected from all animals on Days 1, 6 and 12 at predose, 5 and 15 minutes post injection. Blood samples were collected by venipuncture (jugular, saphenous and cephalic) into tubes containing EDTA. The samples were then centrifuged (within 30 minutes of collection) in a refrigerated centrifuge (ca. 4° C.) at 2700 rpm for 10 minutes. Plasma were separated into a second tube with the appropriate label and stored at −80° C. until analysis at CRM. Plasma samples were used for investigating histamine levels. Samples from animals dosed intravenously with Tat-NR2B9c were analyzed using a validated method.

[7] = system: humans; experiment: Safety, Tolerability and Pharmacokinetic Study in humans: adverse events; type: in vivo, human
Protocol: We carried out a Safety, Tolerability and Pharmacokinetic Study of Tat-NR2B9c in humans. Subjects were either normal, healthy, non-smoking males or post-menopausal or surgically sterile female subjects with a minimum age of 18 years. The subjects were either administered Tat-NR2B9c, Lot #: 124-134-001B, or were given placebo (Phosphate Buffered Saline), Lot #: 124-134-001A, administered as an intravenous infusion (10±1 minutes). Four subjects were dosed in each of Cohorts 1 to 3, and 10 subjects were dosed in each of Cohorts 4 to 8. All 62 subjects completed the study. Treatment periods for each cohort were as follows: Cohort 1: Sep. 14, 2006; Cohort 2: Sep. 26, 2006; Cohort 3: Oct. 6, 2006; Cohort 4: Oct. 20, 2006; Cohort 5: Nov. 6, 2006; Cohort 6: Dec. 4, 2006; Cohort 7: Dec. 17, 2006; Cohort 8: Feb. 25, 2007.
The safety assessment was performed on all subjects who received at least 1 dose during the course of the study. The incidents of all adverse events (AEs) were tabulated by treatment and subject number. Absolute values for vital signs, electrocardiogram (ECG) parameters, laboratory parameters and physical examinations were also documented and values outside the nomial range were flagged. Shifts from baseline values were tabulated. AEs were documented using investigator and Medical Dictionary for Regulatory Activities (MedDRA) terms.

[8] = Maximum Tolerated Dose in preclinical animal trials, dogs; conditions: dog, in vivo

## YGRKKRRQRRRKLSSIESDV [Tat-NR2B9c]
[1]; 50 mg/kg bolus over 3 minutes, all animals, FIG. 6
  Mean arterial pressure: transient reductions in mean arterial pressure; also recorded: drop in blood pressure
[1]; rat, 50 mg/kg
  Respiratory effects: decreased tidal volume, respiratory rate and derived minute volume
[2]
  Time post-dose over which increases in heart rate were observed: up to 15 minutes
[2]; individual animals at 5 to 10 minutes post-dose
  Decreases in blood pressure values: up to 62%
[2]; males and females
  Time of maximum effect on heart rate: 10 min
[3]; 5.0 mg/kg, female dog
  Reaction: no reaction
[3]; 5.0 mg/kg, male dog
  Reaction: moderate reaction
[3]; 7.5 mg/kg, both animals
  Vital signs (heart rate, blood pressure, respiratory rate and body temperature): stayed within the normal physiological ranges
[3]; 7.5 mg/kg, female dog
  Reaction: no reaction
[3]; 7.5 mg/kg, male dog
  Reaction: angio-neurotic edema of the soft tissue of the head and urticaria type of reaction
[3]; female dog
  Severity of angio-neurotic oedema and urticaria: mild
[3]; male dog
  Severity of angio-neurotic oedema and urticaria: moderate
[3]; 20.0 mg/kg, male dog
  Reaction: went into shock
[3]; 20.0 mg/kg, male dog, treated with benadryl and dexamethasone
  Blood pressure at 5 minutes post-dosing: 37/13
[3]; fifth dose 2.5 mg/kg
  Adverse reactions: reddening of ear and face of the male dog
[3]; first dose 2.5 mg/kg, male and female dog
  Signs of toxicity: did not show any signs of toxicity
[3]; high doses
  Conclusion of dose range study: capable of inducing profound transient hypotension and urticaria-like skin reactions
[4]
  MTD: 100 mg/kg
[5]
  Effect on MAP (printed MAT) after injection: rapid and transient reduction; also recorded: reduction in blood pressure
[6]; 10 mg/kg daily i.v.
  Lethargy and unpalpable pulse as characterized by attending veterinarian: severe hypotensive reaction
[6]; 10 mg/kg daily i.v., 14 days, all animals
  Clinical signs: treatment-related clinical signs
[6]; any dose level
  Change of histamine levels during 14-day repeated dosing: no consistent increase in histamine levels
[6]; immediately following the first administration, naive dogs
  Plasma histamine levels: increased histamine levels
[7]; 0.02 to 1.50 mg/kg
  AEs of the higher doses at the lower dose range: minimal or not present
[7]; 2.60 and 3.75 mg/kg dose groups
  Incidence of AEs vs lower dose groups and placebo: significantly more AEs; also recorded: higher
[7]; all doses
  Serious Adverse Events: No Serious Adverse Events (SAEs) were reported
[7]; all doses 0.02-3.75 mg/kg
  Active treatment subjects with at least 1 AE: 73.9%
[7]; decreased blood pressure, paraesthesia, hypoaesthesia, erythema, rash, pruritus, dry mouth, nausea, feeling hot, flushing
  Doses at which several AEs were frequently reported: ≥ 2.60 mg/kg
[7]; subjects receiving Tat-NR2B9c
  Subjects feeling hot: 28.3%
  Subjects feeling hot (count): 13/46
  Subjects with dry mouth: 19.6%
  Subjects with dry mouth (count): 9/46
  Subjects with flushing: 21.7%
  Subjects with flushing (count): 10/46
  Subjects with pruritis: 26.1%
  Subjects with pruritis (count): 12/46
[8]
  MTD: 12.5 mg/kg
